Data taken from article doi:10.1101/2021.05.05.442810v1 (biorxiv, 2021).

Molecular target: truncated variant of M. xanthus ParB (NB and DNA-binding domains) (Myxococcus xanthus, UniProt Q1CVJ4)
Details: formed from CTPγS in crystallization; Mg2+; with thiophosphate; pH 8.5

## Nc1ccn([C@@H]2O[C@H](COP(=O)(O)OP(=O)(O)O)[C@@H](O)[C@H]2O)c(=O)n1 [CDP]
  X-ray crystal structure (1.9 Å): we did not detect CTPγS but CDP
